The values below come from US20120277312A1, “Ethylgallate and Related Compounds as a Treatment for Sepsis and Septic Shock” (priority 2009, published 2012).

Each structure is given as a SMILES string.

Experiment [1] concerns lysozyme's vasodilatory effect in canine carotid artery preparation. Briefly: Lysozyme-induced vasodilation in canine carotid artery preparation (in-vitro). As to the method:
Lysozyme produces vasodilation by intrinsically generating hydrogen peroxide (H2O2) that leads to activation of signaling pathways resulting in these hemodynamic effects (7).
Ethyl gallate is added to food as an antioxidant. It is the ethyl ester of gallic acid. Though found naturally in a variety of plant sources including walnuts (8), ethyl gallate is produced from gallic acid and ethanol (9). […] It is of note that if a substance could not inhibit lysozyme's effect in-vitro, then it would be worthless to pursue an in-vivo study.

The subject of experiment [2] is lysozyme-induced myocardial depression. Briefly: Lysozyme-induced myocardial depression, in-vitro experiments. To be noted: previous in-vitro experiments. The text has this: Usually, when one increases the blood pressure in septic shock, there is the potential for stroke-volume and cardiac out to fall, since the heart has to pump against a greater load. Particularly, in septic shock, cardiac function is depressed.

For `CCOC(=O)c1cc(O)c(O)c(O)c1` [ethyl gallate], the “prevention of vasodilation caused by lysozyme” value in experiment [1] (canine carotid artery and superior mesenteric arterial preparations) was “prevented”. In experiment [1] (canine carotid artery preparation, in-vitro), the “block of lysozyme's vasodilatory effect” value is reported as “blocked”. In addition, in experiment [2], the “prevention of lysozyme-induced myocardial depression” value is given as “prevents”.
